US20220089592A1, “IMIDAZO[1,2-A]PYRIDINYL DERIVATIVES AS IRAK4 INHIBITORS” (priority 2019, published 2022)
Where a name gives a salt, the structure may show the parent alone.

Target: T1, IRAK4 (Homo sapiens, UniProt Q9NWZ3)
T1 sequence (Q9NWZ3 1-460): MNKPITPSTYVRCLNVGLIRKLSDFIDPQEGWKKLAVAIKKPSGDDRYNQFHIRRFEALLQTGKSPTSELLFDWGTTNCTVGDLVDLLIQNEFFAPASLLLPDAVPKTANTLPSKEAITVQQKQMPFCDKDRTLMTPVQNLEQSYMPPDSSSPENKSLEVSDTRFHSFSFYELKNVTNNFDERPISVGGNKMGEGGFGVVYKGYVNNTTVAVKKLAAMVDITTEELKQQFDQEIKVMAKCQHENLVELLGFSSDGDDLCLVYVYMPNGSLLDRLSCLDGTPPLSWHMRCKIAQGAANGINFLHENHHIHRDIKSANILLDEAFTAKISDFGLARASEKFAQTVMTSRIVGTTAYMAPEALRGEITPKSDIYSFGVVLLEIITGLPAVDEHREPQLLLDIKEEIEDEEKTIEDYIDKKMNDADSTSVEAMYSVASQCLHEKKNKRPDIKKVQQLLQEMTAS
Assay: 2-hour 1 mM ATP IRAK4 Biochemical assay (as above, but with 100 pM IRAK4 and 1 mM ATP)
Conditions: IRAK4 MSD BIOCHEMICAL (1 mM ATP) IC50 (μM), 100 pM IRAK4, 2 hours
Outline: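 MSD electrochemiluminescence read-out: biotinylated peptide product bound to streptavidin plates, probed with anti-P-Thr rabbit antibody and Sulfo-Tag goat anti-rabbit. Kinase reaction used 1 mM ATP and 100 pM IRAK4 over 2 hours before EDTA quench.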

Row | IC50 [µM] | Structure (SMILES)
1 | 0.002 | CC(C)Oc1cc2nc(C3CCOCC3)cn2cc1NC(=O)c1cccc(C2CCOC2)n1 (centres unmarked) [Example 380, N-(7-isopropoxy-2-(tetrahydro-2H-pyran-4-yl)imidazo[1,2-a]pyridin-6-yl)-6-(tetrahydrofuran-3-yl)picolinamide hydrochloride]
2 | 0.001 | COc1ncccc1C(=O)Nc1cn2cc(C34COC(C)(C3)C4)nc2nc1OC(C)C [Example 346, N-(7-isopropoxy-2-(1-methyl-2-oxabicyclo[2.1.1]hexan-4-yl)imidazo[1,2-a]pyrimidin-6-yl)-2-methoxynicotinamide]
3 | 0.014 | COc1nc(NC(=O)c2cccc3c2OCC3(F)F)cn2cc(C3CCOCC3)nc12 [Example 454, 3,3-difluoro-N-(8-methoxy-2-(tetrahydro-2H-pyran-4-yl)imidazo[1,2-a]pyrazin-6-yl)-2,3-dihydrobenzofuran-7-carboxamide]
4 | 0.001 | CCOc1cc2nc(C3CN(CC(F)F)C3)cn2cc1NC(=O)c1cccc(C(F)F)n1 [Example 78, N-(2-(1-(2,2-difluoroethyl)azetidin-3-yl)-7-ethoxyimidazo[1,2-a]pyridin-6-yl)-6-(difluoromethyl)picolinamide]
5 | 0.008 | CCOc1cc2nc([C@@H]3C[C@@H]3F)cn2cc1NC(=O)c1cccc(C(F)F)n1 (relative stereo) [Example 519, Cis 6-(difluoromethyl)-N-(7-ethoxy-2-(2-fluorocyclopropyl)imidazo[1,2-a]pyridin-6-yl)picolinamide hydrochloride]
6 | 0.025 | Cc1cc(NC(=O)c2cccc3ccnn23)cn2cc(C34COC(C)(C3)C4)nc12 [Example 408, N-(8-methyl-2-(1-methyl-2-oxabicyclo[2.1.1]hexan-4-yl)imidazo[1,2-a]pyridin-6-yl)pyrazolo[1,5-a]pyridine-7-carboxamide 2,2,2-trifluoroacetate]
7 | 0.002 | CCOc1cc2nc(C3C4COCC43)cn2cc1NC(=O)c1ccn(C2CC2(F)F)n1 (centres unmarked) [Example 374, N-(2-(3-oxabicyclo[3.1.0]hexan-6-yl)-7-ethoxyimidazo[1,2-a]pyridin-6-yl)-1-(2,2-difluorocyclopropyl)-1H-pyrazole-3-carboxamide]
8 | 0.003 | COc1cc(NC(=O)c2cccc(C(F)F)n2)cn2cc(C3CCCOC3)nc12 (single isomer, unassigned) [Example 270, 6-(difluoromethyl)-N-(8-methoxy-2-(tetrahydro-2H-pyran-3-yl)imidazo[1,2-a]pyridin-6-yl)picolinamide]
9 | 0.005 | COc1nc(NC(=O)c2cccc(C(F)F)n2)cn2cc(C3C4CCOCC43)nc12 (centres unmarked) [Example 556, N-(2-(3-oxabicyclo[4.1.0]heptan-7-yl)-8-methoxyimidazo[1,2-a]pyrazin-6-yl)-6-(difluoromethyl)picolinamide 2,2,2-trifluoroacetate]
10 | 0.002 | O=C(Nc1cn2cc(C3CCOCC3)nc2cc1OCCOC(F)F)c1cccc(C(F)F)n1 [Example 192, N-(7-(2-(difluoromethoxy)ethoxy)-2-(tetrahydro-2H-pyran-4-yl)imidazo[1,2-a]pyridin-6-yl)-6-(difluoromethyl)picolinamide]
11 | 0.014 | COCCn1ccc(C(=O)Nc2cn3cc(C4CCOCC4)nc3cc2OC(C)C)n1 [Example 383, N-(7-isopropoxy-2-(tetrahydro-2H-pyran-4-yl)imidazo[1,2-a]pyridin-6-yl)-1-(2-methoxyethyl)-1H-pyrazole-3-carboxamide 2,2,2-trifluoroacetate]
12 | 0.055 | O=C(Nc1cn2cc(C3CCOCC3)nc2c(N2CCCC2)n1)c1cccc(C(F)F)n1 [Example 342, 6-(difluoromethyl)-N-(8-(pyrrolidin-1-yl)-2-(tetrahydro-2H-pyran-4-yl)imidazo[1,2-a]pyrazin-6-yl)picolinamide]
13 | 0.012 | CC(C)Oc1cc2nc(C34COC(C)(C3)C4)c(Cl)n2cc1NC(=O)c1cccc(C(F)F)n1 [Example 575, N-(3-chloro-7-isopropoxy-2-(1-methyl-2-oxabicyclo[2.1.1]hexan-4-yl)imidazo[1,2-a]pyridin-6-yl)-6-(difluoromethyl)picolinamide 2,2,2-trifluoroacetate]
14 | 0.006 | CC(C)Oc1cc2nc(C(C)(C)C(=O)O)cn2cc1NC(=O)c1cccc(C(F)F)n1 [Example 262, 2-(6-(6-(difluoromethyl)picolinamido)-7-isopropoxyimidazo[1,2-a]pyridin-2-yl)-2-methylpropanoic acid]
15 | 0.016 | COc1cccc(C(=O)Nc2cn3cc(C4CCOCC4)nc3cc2C(F)F)n1 [Example 389, N-(7-(difluoromethyl)-2-(tetrahydro-2H-pyran-4-yl)imidazo[1,2-a]pyridin-6-yl)-6-methoxypicolinamide 2,2,2-trifluoroacetate]
16 | 0.001 | CC(C)Oc1c(NC(=O)c2coc(C3CC3)n2)cn2cc(C34COC(C)(C3)C4)nc2c1F [Example 431, 2-cyclopropyl-N-(8-fluoro-7-isopropoxy-2-(1-methyl-2-oxabicyclo[2.1.1]hexan-4-yl)imidazo[1,2-a]pyridin-6-yl)oxazole-4-carboxamide]
17 | 0.004 | COc1c(NC(=O)c2cccc(C(F)F)n2)cn2cc(C34COC(C)(C3)C4)nc2c1C [Example 295, 6-(difluoromethyl)-N-(7-methoxy-8-methyl-2-(1-methyl-2-oxabicyclo[2.1.1]hexan-4-yl)imidazo[1,2-a]pyridin-6-yl)picolinamide]
18 | 0.001 | CCOc1cc2nc(C3CCOCC3)cn2cc1NC(=O)c1cccc(CC)n1 [Example 217, N-(7-ethoxy-2-(tetrahydro-2H-pyran-4-yl)imidazo[1,2-a]pyridin-6-yl)-6-ethylpicolinamide]
19 | 0.001 | CC(C)Oc1nc2nc(C3CCOCC3)cn2cc1NC(=O)c1cccc2c1OCC2(F)F [Example 487, 3,3-difluoro-N-(7-isopropoxy-2-(tetrahydro-2H-pyran-4-yl)imidazo[1,2-a]pyrimidin-6-yl)-2,3-dihydrobenzofuran-7-carboxamide]
20 | 0.002 | COc1cccc(C(=O)Nc2cn3cc(C45COC(C)(C4)C5)nc3c(F)c2OC(C)C)n1 [Example 426, N-(8-fluoro-7-isopropoxy-2-(1-methyl-2-oxabicyclo[2.1.1]hexan-4-yl)imidazo[1,2-a]pyridin-6-yl)-6-methoxypicolinamide]
21 | 0.003 | COc1c(F)cccc1C(=O)Nc1cn2cc(C34COC(C)(C3)C4)nc2nc1OC(C)C [Example 489, 3-fluoro-N-(7-isopropoxy-2-(1-methyl-2-oxabicyclo[2.1.1]hexan-4-yl)imidazo[1,2-a]pyrimidin-6-yl)-2-methoxybenzamide 2,2,2-trifluoroacetate]
22 | 0.001 | O=C(Nc1cn2cc(C3CCOCC3)nc2cc1OCC1(C(F)F)CCC1)c1cccc(C(F)F)n1 [Example 198, 6-(difluoromethyl)-N-(7-((1-(difluoromethyl)cyclobutyl)methoxy)-2-(tetrahydro-2H-pyran-4-yl)imidazo[1,2-a]pyridin-6-yl)picolinamide]
23 | 0.534 | Cc1cc(NC(=O)c2ccn(C)n2)cn2cc(C34COC(C)(C3)C4)nc12 [Example 409, 1-methyl-N-(8-methyl-2-(1-methyl-2-oxabicyclo[2.1.1]hexan-4-yl)imidazo[1,2-a]pyridin-6-yl)-1H-pyrazole-3-carboxamide 2,2,2-trifluoroacetate]
24 | 0.002 | COc1cccn2ncc(C(=O)Nc3cn4cc(C56COC(C)(C5)C6)nc4c(OC(C)C)n3)c12 [Example 338, N-(8-isopropoxy-2-(1-methyl-2-oxabicyclo[2.1.1]hexan-4-yl)imidazo[1,2-a]pyrazin-6-yl)-4-methoxypyrazolo[1,5-a]pyridine-3-carboxamide]
25 | 0.024 | COc1nc(NC(=O)c2cccc3ccnn23)cn2cc(C34COC(C)(C3)C4)nc12 [Example 442, N-(8-methoxy-2-(1-methyl-2-oxabicyclo[2.1.1]hexan-4-yl)imidazo[1,2-a]pyrazin-6-yl)pyrazolo[1,5-a]pyridine-7-carboxamide]
26 | 0.001 | CC(C)Oc1nc2nc(C34COC(C)(C3)C4)cn2cc1NC(=O)c1cccn(C(F)F)c1=O [Example 496, 1-(difluoromethyl)-N-(7-isopropoxy-2-(1-methyl-2-oxabicyclo[2.1.1]hexan-4-yl)imidazo[1,2-a]pyrimidin-6-yl)-2-oxo-1,2-dihydropyridine-3-carboxamide 2,2,2-trifluoroacetate]
27 | 0.1 | COc1cc(NC(=O)c2cccc(C(F)F)n2)cn2c(F)c(C3CCOCC3)nc12 [Example 351, 6-(difluoromethyl)-N-(3-fluoro-8-methoxy-2-(tetrahydro-2H-pyran-4-yl)imidazo[1,2-a]pyridin-6-yl)picolinamide]
28 | 0.007 | CCOc1cc(NC(=O)c2cccc(C(F)F)n2)cn2cc([C@@H]3C4COC[C@H]43)nc12 (relative stereo) [Example 306, N-(2-((1R*,5S*,6s*)-3-oxabicyclo[3.1.0]hexan-6-yl)-8-ethoxyimidazo[1,2-a]pyridin-6-yl)-6-(difluoromethyl)picolinamide]

Row | Structure (SMILES) | IC50 [µM]
29 | CC12CCC(c3cn4cc(NC(=O)c5coc(C6CC6)n5)nc(OC5CCC5)c4n3)(CO1)C2 (centres unmarked) [Example 341, N-(8-cyclobutoxy-2-(1-methyl-2-oxabicyclo[2.2.1]heptan-4-yl)imidazo[1,2-a]pyrazin-6-yl)-2-cyclopropyloxazole-4-carboxamide] | 0.006
